Measured values as given in patent US12090157B2, “Non-invasive pet imaging of CDK4/6 activation in cancer” (New York University, priority 2020, dated 2024).
Where “and” joins values, the source holds several entries; their conditions need not be identical. Identical values can stand only once. Like-named read-outs stand apart in the source and are kept apart here.

Tests used:
CDK4/6 = test: IC50 binding affinity, competitive ATP quantitative assay (CellTiter-Glo, MCF-7 cells); format: cell-based, human; settings: for binding affinity to CDK4/6: FIG. 2A legend
Method: (§1) IC50 values were determined using a competitive ATP quantitative assay. […]. MCF-7 cells were cultured at 37° C. for 4 h. Then, ^19F-CDKi or vehicle was added at different concentration and incubated at 37° C. for 96 h. Cell viability was then assessed using CellTiter-Glo® Luminescent Assay (Promega, Madison, WI), used accordingly to manufacturer's guidelines. Cell viability inhibition (%) was calculated according to the formula [1−(mean luminosity of treated sample/mean luminosity of vehicle control)]×100. IC50 for growth or viability inhibition was calculated using Graph Prism 8 (GraphPad Software Inc, La Jolla, CA). We used ^18F-CDKi and palbobiclib for competitive displacement studies. MCF-7 cells were seeded in a 12 wells plate (1×10^5 cells 24 h prior the experiment). The next day, a fixed concentration of ^18F-CDKi (50 nM) was co-incubated with linearly doubling concentrations of palbociclib (from 0 to 500 nM) at 37° C. for 2 h. Then, the cells were washed twice with PBS, lysed with 1N NaOH, and the activity (CPM) measured in a γ-counter for bound ^18F radioligand. The percentage of bound radioligand was finally plotted against palbociclib concentration. Competitive displacement curves were fitted using Graph Prism 8 (GraphPad Software Inc, La Jolla, CA).

MCF-7 xenografts = test: MicroPET/CT imaging and ex-vivo biodistribution in MCF-7 bearing mice; design: species or system mouse; settings: for kidney concentration / liver concentration / small intestines concentration: 2 h post injection
Method: Female athymic nude CrTac:NCr-Foxnlnu mice (n=35) were purchased from Taconic Laboratories (Hudson, NY). 20 mice received subcutaneous injections with 2×10^6 human MCF-7 cancer cells in Matrigel® (BD Biosciences, San Jose, CA) into each right shoulder and were allowed to grow for approximately two months until the tumors reached ˜10 mm in diameter. All mice were supplemented with 60 days 0.72 mg slow release estradiol pellets purchased from Innovative Research of America (IRA, Sarasota, FL) implanted in the left flank. Mice were anesthetized (isoflurane 1.5%, 2 L/min medical air) during tumor implantation and microPET imaging.
Twelve subcutaneous MCF-7 implanted athymic nude mice were divided in two groups (blocked and unblocked) and administered with ^18F-CDKi (˜7.4 mBq) via tail vein injection. Approximately 5 min prior to PET acquisition, mice were anesthetized by inhalation of a mixture of isoflurane (Baxter Healthcare, Deerfield, IL, USA; 2% isoflurane, 2 L/min medical air) and positioned on the scanner bed. Anesthesia was maintained using a 1% isoflurane/O2 mixture. PET data for each mouse was recorded and acquired at 30 min p.i and at 120 min p.i. Blocking studies were performed after a pre-injection of 50-fold excess palbociclib (8.4 nmol, 3.8 μg, 30 min before). The duration of the microPET/CT imaging sessions was 20 min each.
Biodistribution of ^18F-CDKi was performed in subcutaneous MCF-7 bearing athymic nude mice (n=8). Mice were divided (n=4/group) in blocked and unblocked (50-fold excess palbociclib, 30 minutes before) and administered with ^18F-CDKi via tail vein injection (1.85 mBq). At 120 minutes post injection of the radioligand, the mice were sacrificed and organs of interest were collected. Organs were weighed, and activity was measured with a WIZARD^2 automatic γ-counter (PerkinElmer, Boston, MA). The radiopharmaceutical uptake was expressed as a percentage of injected dose per gram (% ID/g) using the following formula: [(activity in the target organ/grams of tissue)/injected dose]×100%.

In vitro stability = format: in vitro ADME; settings: after 4 h of incubation
[1] = Octanol/water partition coefficient; format: physicochemical; settings: 1-octanol / phosphate buffered saline pH 7.4
Method: The Chemical Hydrophobicity Indices (CHI) were measured using a previously developed procedure (Valkó, Journal Chromatogr A. 2004; 1037:299-310, Valkó et al., Anal Chem. 1997; 69:2022-2029. Briefly, reverse phase HPLC was used to measure the retention times of a set of standards with known CHI. A standard curve was then created to calculate the CHI of […] based on the HPLC retention time. The lipophilicity of the ^18F-CDKi was acquired by adding 0.09 mBq to a mixture of 0.5 mL of 1-octanol and 0.5 mL of 25 mM phosphate buffered saline (pH 7.4) and mixed for 5 minutes. Then, the mixture was centrifuged at 15.000 rpm for 5 minutes. 100 μL samples were obtained from organic and aqueous layers, and the radioactivity of the samples were measured in a WIZARD^2 automatic γ-counter. The experiment was performed in triplicate, and the resulting log Pow was calculated as the mean±SD.

Blood half-life = format: in vivo, mouse; settings: mice, single bolus intravenous injection
Method: The blood half-life of ^18F-CDKi was calculated by measuring the activity of blood samples collected at different time points p.i. (5, 15, 30, 45, 60, 90 and 120 minutes). Female nude mice (n=3) were injected via lateral tail vein with ^18F-CDKi (and blood samples obtained by retro-orbital bleed using tared capillary tubes. Samples were weighed, and activity was measured by γ-counter. The blood half-life was calculated using Graph Prism 7 (GraphPad Software, La Jolla, CA) using a two-phase decay least squares fitting method and expressed as % ID/g.

MCF-7 cells [2] = test: In vitro cell-associated uptake of ^18F-CDKi; format: cell-based, human
Method: MCF-7 cells were seeded in a 6 well plates (5×10^6 cells 24 hours prior the experiment). The next day, ^18F-CDKi was added alone or together with a 50-fold excess Palbociclib and incubated at 37° C. for 1 h. After 1 h, cells were firstly washed three times with PBS, then lysed with 1N NaOH, and finally media and cells counted in a γ-counter. The percentage of bound/unbound radioligand at each time point was measured in triplicate and plotted as a function of time.

MCF-7 cells [3] = test: Competitive displacement of ^18F-CDKi by palbociclib in MCF-7 cells; format: cell-based, human; settings: 50 nM ^18F-CDKi, palbociclib 0 to 500 nM, 2 h, read-out: inhibition effect, competitive displacement of palbociclib
Method: as §1

[4] = first of two values joined by 'or'
[5] = second of two values joined by 'or'

For `CC(=O)c1c(C)c2cnc(Nc3ccc(N4CCN(C(=O)c5ccc([18F])cc5)CC4)cn3)nc2n(C2CCCC2)c1=O` [^18F-CDKi], the IC50 (CDK4/6; FIG. 2A, read-out: targeting affinity to CDK4/6) was ~13 nM, the “IC50 against both CDK4 and CDK6 kinases” value (CDK4/6; in words) was “single digit nanomolar” and the “binding affinity to CDK4/6” value (CDK4/6; in words) was “nanomolar”. The IC50 (CDK4/6; in words, similar to the parent compound palbociclib) was “nanomolar range”, the kidney concentration (MCF-7 xenografts; [4]) was 7.99±0.7 % ID/g and the liver concentration (MCF-7 xenografts; [4]) was 6±0.5 % ID/g. It also gave a small intestines concentration (MCF-7 xenografts; [4]) of 9.6±2.7 % ID/g, a kidney concentration (MCF-7 xenografts; [5]) of 9.6±0.98 % ID/g and a liver concentration (MCF-7 xenografts; [5]) of 6.77±1.15 % ID/g. The small intestines concentration (MCF-7 xenografts; [5]) was 10±1.19 % ID/g, the tumor-to-blood ratio (MCF-7 xenografts; MCF-7 bearing mice, 2 h p.i.) was > 5 and the tumor-to-bone ratio (MCF-7 xenografts; MCF-7 bearing mice, 2 h p.i.) was > 10. For the same compound, the tumor-to-muscle ratio (MCF-7 xenografts; MCF-7 bearing mice, 2 h p.i.) was > 15, the “tumor uptake after injection of palbociclib prior to the radiotracer” value (MCF-7 xenografts; MCF-7 bearing mice, in words) was “negligible” and the “tumor uptake, blocked” value (MCF-7 xenografts; MCF-7 xenografts, 50-fold excess of cold palbociclib pre-injected) was ~0.3 % ID/g. The tumor uptake (MCF-7 xenografts; MCF-7 xenografts, ^18F-CDKi alone, 2 h p.i.) was ~4 % ID/g, the clearance route (MCF-7 xenografts; PET imaging and biodistribution, mice) was “hepatobiliary route” and the “in vitro stability, parent compound intact” value (In vitro stability) was “more than 98%”. The “octanol/water phase partition coefficient (log DO/W)” value [1] was 1.91±0.24, the logD ([1]; read-out: octanol/water phase partition coefficient (log DO/W)) was 1.91 ± 0.24 and the “in vivo blood half-life t1/2(weighted)” value (Blood half-life) was 7.03 min and 7 min. The “cell uptake blocked by excess of cold, unlabeled palbociclib” value (MCF-7 cells [2]) was > 98%, the maximum intracellular concentration (MCF-7 cells [2]; 10 minutes post incubation) was ~65% and the “tracer uptake when co-incubated with a molar excess of Palbociclib” value (MCF-7 cells [2]; blocked) was < 5%.
With `CC(=O)c1c(C)c2cnc(Nc3ccc(N4CCN(C(=O)c5ccc(F)cc5)CC4)cn3)nc2n(C2CCCC2)c1=O` [^19F-CDKi] the IC50 (MCF-7 cells [3]) was ~18 nM and the “binding affinity to CDK4/6” value (CDK4/6; in words) was “nanomolar”.
